From US7582417B2, “Sequential reporter enzyme luminescence (SRL) methods and compositions for practicing the same” (The Board of Trustees of the Leland Stanford Junior …, priority 2006, dated 2009)

Columns and labels:
[1] = published value; cited from earlier work
[2] = target: T1, somatostatin 2 receptor (SSTR2) (Homo sapiens, UniProt P30874); assay: In vivo luminescent imaging of somatostatin 2 receptor activation (SSTR2/Fluc cells in BALB/c nude mice, Lugal); conditions: after octreotide i.p.
T1 construct: expressed in transfected cells; host or cells: C2C12 myoblasts, retrovirally transduced; the in vivo cells also carry Ras and FLuc
T1 sequence (P30874 whole entry): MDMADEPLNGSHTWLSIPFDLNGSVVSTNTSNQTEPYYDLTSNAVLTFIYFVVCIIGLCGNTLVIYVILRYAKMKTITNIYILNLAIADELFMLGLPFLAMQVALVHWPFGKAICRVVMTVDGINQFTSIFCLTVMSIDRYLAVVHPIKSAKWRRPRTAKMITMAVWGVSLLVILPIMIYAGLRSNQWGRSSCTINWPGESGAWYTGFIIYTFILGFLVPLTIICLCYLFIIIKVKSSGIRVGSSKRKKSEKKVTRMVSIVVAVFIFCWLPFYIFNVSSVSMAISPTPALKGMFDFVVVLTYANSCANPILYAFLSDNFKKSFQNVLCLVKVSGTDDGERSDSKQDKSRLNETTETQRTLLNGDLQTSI
T1 sequence (P32121 whole entry partner): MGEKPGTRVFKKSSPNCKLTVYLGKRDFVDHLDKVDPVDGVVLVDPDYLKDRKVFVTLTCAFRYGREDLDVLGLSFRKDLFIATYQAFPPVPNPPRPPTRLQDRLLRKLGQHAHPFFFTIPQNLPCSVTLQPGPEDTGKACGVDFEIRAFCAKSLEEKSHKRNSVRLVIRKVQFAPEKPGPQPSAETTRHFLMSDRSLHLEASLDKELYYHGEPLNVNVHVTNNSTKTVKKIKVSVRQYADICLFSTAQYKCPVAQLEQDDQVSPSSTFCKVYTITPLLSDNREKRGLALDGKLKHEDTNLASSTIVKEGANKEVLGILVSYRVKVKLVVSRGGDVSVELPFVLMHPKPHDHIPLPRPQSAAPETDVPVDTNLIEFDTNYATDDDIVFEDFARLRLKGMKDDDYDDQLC
Source text: All protocols were approved by the Administrative Panel on Laboratory Animal Care at Stanford University School of Medicine. BALB/c nude were obtained from the Stanford University in-house colony. C2C12 myoblasts were harvested and suspended in 0.5% BSA in PBS at a final concentration of 10^8 cells/ml for injection. 4×10^6 cells carrying the β2/arrestin β-gal/Ras/FLuc or the SSTR2/arrestin β-gal/Ras/FLuc constructs were subcutaneously into the back of mice (2 injections/mouse), and allowed to grow into small tumors over 7 to 14 days.
Imaging was carried out using a Xenogen-100 device as previously described. Briefly, the system is composed of a light-tight imaging chamber, a digital CCD camera colled by a cryogenic refrigeration unit and a computer system (Living Image™ 2.50 software, Xenogen, Alameda).
We engineered new cell lines carrying the SSTR2/arrestin-β-galactosidase construct by retroviral transduction with the Fluc and ras genes (SSTR2/Fluc).

[3] = target: T2, β-gal activity of implanted FLuc/LacZ cells (Escherichia coli, UniProt P00722); assay: Near-infrared fluorescent imaging of β-gal activity with DDAOG; format: in vivo, mouse; set-up: expressed in transfected cells; host or cells: C2C12 mouse myoblasts, retrovirally transduced (FLuc/LacZ cells); conditions: 1×10^6 cells, right vs left leg
T2 sequence (P00722 whole entry): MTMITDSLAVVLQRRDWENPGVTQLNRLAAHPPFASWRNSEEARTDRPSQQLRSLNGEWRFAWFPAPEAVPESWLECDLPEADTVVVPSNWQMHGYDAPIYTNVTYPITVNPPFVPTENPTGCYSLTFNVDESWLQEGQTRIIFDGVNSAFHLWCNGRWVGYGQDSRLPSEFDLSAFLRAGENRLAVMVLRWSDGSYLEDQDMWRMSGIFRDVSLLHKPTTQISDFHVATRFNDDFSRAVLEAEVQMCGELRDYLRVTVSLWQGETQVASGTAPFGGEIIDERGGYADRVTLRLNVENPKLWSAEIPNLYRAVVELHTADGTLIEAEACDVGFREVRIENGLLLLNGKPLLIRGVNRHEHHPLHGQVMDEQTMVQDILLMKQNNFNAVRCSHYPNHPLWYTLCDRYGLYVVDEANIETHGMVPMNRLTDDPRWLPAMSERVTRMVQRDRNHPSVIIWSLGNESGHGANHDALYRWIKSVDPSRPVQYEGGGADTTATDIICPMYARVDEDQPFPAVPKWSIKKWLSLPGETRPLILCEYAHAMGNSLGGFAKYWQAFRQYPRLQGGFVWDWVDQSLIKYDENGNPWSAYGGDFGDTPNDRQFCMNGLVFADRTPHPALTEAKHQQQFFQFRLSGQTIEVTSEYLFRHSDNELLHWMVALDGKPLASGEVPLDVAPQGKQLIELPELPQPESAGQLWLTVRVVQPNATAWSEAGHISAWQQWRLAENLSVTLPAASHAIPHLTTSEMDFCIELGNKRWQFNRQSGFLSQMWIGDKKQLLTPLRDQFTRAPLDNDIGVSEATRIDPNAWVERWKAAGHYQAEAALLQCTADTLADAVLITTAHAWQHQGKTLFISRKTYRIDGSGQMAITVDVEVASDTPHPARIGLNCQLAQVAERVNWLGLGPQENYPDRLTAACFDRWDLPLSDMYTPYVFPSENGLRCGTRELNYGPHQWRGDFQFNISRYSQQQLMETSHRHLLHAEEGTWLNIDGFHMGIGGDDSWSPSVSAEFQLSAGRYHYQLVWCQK
Protocol: The near-infrared imaging probe DDAOG (Molecular Probes) was injected intravenously (0.5 mg of DDAOG in 100 μl of DMSO and PBS (1:1)). NIRF reflectance imaging was performed using an IVIS-200 imager (Xenogen) with a custom filter set (excitation: 615-645; emission: 680-720 nm) (Omega Optical). Images were continuously acquired over 45 min after substrate injection and the images showing optimal signal-to-noise ratios were chosen for comparison.

[4] = target: T3, mouse angiotensin receptor 1 (AGTR1) (Mus musculus, UniProt P29754); assay: GPCR/arrestin β-gal complementation assay, AGTR1 cell line; format: cell-based
T3 construct: expressed in transfected cells; host or cells: C2C12 myoblasts, retrovirally transduced
T3 sequence (P29754 whole entry): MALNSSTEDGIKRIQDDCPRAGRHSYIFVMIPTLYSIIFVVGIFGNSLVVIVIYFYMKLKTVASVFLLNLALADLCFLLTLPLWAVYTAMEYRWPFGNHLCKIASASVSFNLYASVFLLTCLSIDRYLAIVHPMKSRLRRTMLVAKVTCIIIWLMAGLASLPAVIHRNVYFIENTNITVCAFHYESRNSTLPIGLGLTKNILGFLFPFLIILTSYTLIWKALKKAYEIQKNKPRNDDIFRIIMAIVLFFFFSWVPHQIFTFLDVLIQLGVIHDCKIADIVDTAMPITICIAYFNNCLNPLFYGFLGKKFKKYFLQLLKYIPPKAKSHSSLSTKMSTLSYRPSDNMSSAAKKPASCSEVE
T3 sequence (P32121 whole entry partner): as the sequence (P32121 whole entry partner) above
Protocol: Cells expressing the GPCR-α* and β-arrestin2-ω fusions were seeded at 20,000 cells/well in a 96-well dish overnight. Ligand was added for 1 hour. Media is aspirated and 50 ul of lysis solution (buffer A) and substrate (Gal-screen) in a 25:1 ratio was added to each well. The plates were incubated for 60-90 min at room temperature before reading in a TR717 luminometer with an integration time of 1 second. EC50 values were calculated using non-linear regression with a variable slope sigmoidal dose response algorithm in Prism software (Graphpad).
To test the sensitivity of the GPCR/arrestin assay, each cell line was plated in a 96-well dish and treated for 60 minutes with escalating doses of the indicated agonist (FIG. 9B). β-gal activity was measured using a luminescent substrate (Tropix).

[5] = target: β-gal activity in FLuc/LacZ C2C12 cells (Escherichia coli, UniProt P00722)
Sequence of β-gal activity in FLuc/LacZ C2C12 cells (P00722 whole entry): as the sequence (P00722 whole entry) above
Protocol: The parental MFG-IRES-lyt-2 construct was used to generate the lyt-2 expressing myoblasts. Retroviral transduction was performed using the ecotropic ΦNX packaging cell line (generous gift of GP Nolan). This line was transiently transfected with the proviral constructs using Fugene transfection reagent (Boehringer Mannheim). […] Polybrene was added to a final concentration of 8 μg/ml (Sigma) and cells were spun at 2,000 RPM in a Beckman GS-6 centrifuge. Cells transduced with the Luciferase-IRES-lyt-2 construct or the parental MFG-IRES-lyt-2 construct were stained with an anti-lyt-2 antibody conjugated to APC (BD Pharmingen). Cells were sorted by FACS on a Becton Dickinson flow cytometer with MoFlo electronics. […] For the in vitro cell studies, C2C12 cells were seeded in growth medium into a 384-well dish. […] The plate was read on a Tropix TR717 luminometer at room temperature with an integration time of 1 s/well. […] Cell lysates were prepared by aspirating the media and adding 15 ul of lysis buffer (1% Triton-X100, 50 mM Tris-HCl, 10 mM MgCl2, 10 mM DTT, 1 mM ATP, pH 7.5). For wells with intact cells, 15 ul of PBS was substituted for lysis buffer. The substrates were added at equivalent volumes to bring the reaction volume to 30 ul.

[6] = target: T2, β-gal activity of implanted FLuc/LacZ cells
Protocol: Imaging was performed using a Xenogen-100 device as previously described (Cao et al., supra). Briefly, the system is comprised of a light-tight imaging chamber, a cooled digital CCD camera with a cryogenic refrigeration unit and the appropriate computer system (Living Image™ 2.50 software, Xenogen, Alameda). […] C2C12 myoblasts were harvested and suspended in 0.5% BSA in PBS at a final concentration of 10^8 cells/ml for injection. For experiment shown in FIG. 1e, 10^6 cells expressing LacZ and FLuc (FLuc/LacZ cells) were injected into the right tibialis anterior muscle (TA) and 10^6 cells expressing FLuc only (FLuc cells) into the left TA of BALB/c nude mice. […] For experiment shown in FIGS. 2a and 2b, a range of cell numbers between 5×10^4 and 2×10^6 were injected subcutaneously in 10 different locations of the back of BALB/c nude mice.

C[C@@H](O)[C@@H]1NC(=O)[C@H](CCCCN)NC(=O)[C@@H](Cc2c[nH]c3ccccc23)NC(=O)[C@H](Cc2ccccc2)NC(=O)[C@@H](NC(=O)[C@H](N)Cc2ccccc2)CSSC[C@@H](C(=O)N[C@H](CO)[C@@H](C)O)NC1=O [octreotide]
serum half life [1]: approx. 6 hours | time for luminescence to return to baseline [2]: 24 h | time for luminescence to return to baseline ([2]; listed as Octreotide): ≤ 24 h

CC(C)NCC(O)c1ccc(O)c(O)c1 (stereo not drawn) [isoproterenol]
serum half life [1]: approx. 2 hours

CC1(C)C2=C(Cl)C(=O)C(Cl)=CC2=Nc2ccc(O[C@@H]3O[C@H](CO)[C@H](O)[C@H](O)[C@H]3O)cc21 [DDAOG, 7-hydroxy-9H-(1,3-dichloro-9,9-dimethylacridin-2-one) β-D-galactoside]
signal-to-noise ratio, fluorescence imaging, leg muscles [3]: 2.8 fold

angiotensin (DRVYIHPF; Angiotensin-2; UniProt P01019 25-32, looked up) [AGTR1 agonist obtained from Sigma]
EC50 [4]: in good agreement with radiolabeled ligand binding assays | increase in β-galactosidase activity ([4]; 60 minutes agonist): greater than 15 fold

D-luciferin-O-β-galactopyranoside [Lugal]
Lugal concentration at which strong luminescent signals were generated ([5]; FLuc/LacZ C2C12 cells, 384-well dish, concentrations as low as): 10 µg/mL | Lugal concentration at which a measurable signal was generated without β-gal ([5]; cells expressing FLuc alone, only at the highest concentration): 1000 µg/mL | bioluminescence signal of FLuc/LacZ cells relative to FLuc cells ([6]; 1×10^6 cells per tibialis anterior, right vs left leg, i.p. Lugal): 30-200 fold | signal-to-noise ratio, luminescence imaging, leg muscles ([6]; 1×10^6 cells, right vs left leg): 429 fold | signal-to-noise ratio of Lugal relative to DDAOG, deeper tissues (skeletal muscle) ([6]; higher with Lugal): 150 fold
